# Experimental data taken from patent US20220047702A1, “TARGETED MAGNETIC VEHICLES AND METHOD OF USING THE SAME” (HADASIT MEDICAL RESEARCH SERVICES AND DEVELOPMENT LTD., priority 2019, published 2022).
# Entries after “also recorded” stand apart in the source; their conditions may differ.
# How the values were obtained:
# CT26 tumors = test: Anti-tumor activity of systemically administered 5FU in tumor-xenografted mice; assay type: in vivo; settings: three consecutive intraperitoneal injections, vs normal saline
# Experimental: Male BALB/c mice (6 weeks of age, Envigo, Israel) were used for all in-vivo experiments. All experiments were performed with approval and in accordance with the guidelines of the Institutional Animal Care and Use Committee at The Hebrew University of Jerusalem. 1.5×10^6 CT26 cells were injected subcutaneously into the right anterior limb of each mouse. Ten days later (day 0) colorectal tumor appeared at the injection site. The mice were randomly allocated to control and experimental groups.
# Following tumor creation systemic administration via intraperitoneal (IP) injection of 5FU (experiment) or normal saline (control) was performed. 5FU injections were carried out on days 3, 4, 5. Tumor progression was evaluated by measuring the tumor volume using a Vernier caliper at days 0,1,3,4,6,8 and 10.
# Statistical analyses of tumor volumes were performed using RM two-way Analysis of Variation (ANOVA) with a confidence interval of 95% using post hoc Dunnet' s analysis of multiple comparisons for the tumor treated with 5FU bounded to 6×IONPs and Sidak's analysis for the tumor treated with free 5FU. Statistical analysis of iron staining quantification in the spleen was performed using the nonparametric Kruskal-Wallis test with a confidence interval of 95% using post hoc Dunn's analysis of multiple comparisons.
# [1] = system: CT26 tumor (Bev resistant); test: Anti-tumor activity of Bev SPIONs in Bev resistant tumors; assay type: in vivo, mice; settings: 10 mg/kg (FIG. 13), without magnetic field
# [2] = Bound avastin concentration on IO/HSA NPs (ELISA); assay type: physicochemical; settings: via ELISA method
# Experimental: 200 μl of NHS-PEG-MA [MA=melimide] (MW=3000 g/mol) were added to sterile IO/HSA nanoparticles dispersion in PBS (5 ml, 10 mg/mL). The reaction mixture was shaken at room temperature for 30 min. The derivatized PEGMA-conjugated IO/HSA NPs PBS dispersion was washed and eluted with bicarbonate buffer in a magnetic column, followed by immediate addition under sterile conditions of 40 μl of AV aqueous solution (25 mg/ml). The reaction mixture was shaken at 4° C. for 1.5 h. then, 10 weight % glycine solution (10 mg) were added to the AV-conjugated IO/HSA NPs bicarbonate aqueous dispersion to block residual sites. The AV-IO/HSA nanoparticles were then washed and eluted through a magnetic column with PBS and stored under sterile conditions.
# Avastin was physically conjugated to the IO/HSA nanoparticles by adding 7.5 mg of avastin to 4 mL of the IO/HSA NPs PBS dispersion (10 mg/mL). […]
# The attached and remaining concentrations of physically and covalently conjugated avastin was determined through ELISA assay using a standard protocol. The calculated covalent bound avastin concentration (via ELISA method) was 0.10 mg/1 mg of the nanoparticles. The calculated physical conjugated avastin concentration (via ELISA method) was 0.13 mg/1 mg of the nanoparticles (30% more of the covalent binding process).
compound,measurement,setting,value
"O=c1[nH]cc(F)c(=O)[nH]1 [5FU, 5-Fluorouracil]",tumor volume / tumor growth,CT26 tumors,No significant changes in tumor volumes; also recorded: did not inhibit CT26 tumor growth at all; also recorded: no significant difference
bevacizumab,tumor growth,[1]; local administration,did not yield inhibition of tumor growth; also recorded: had no effect on tumor growth
same,tumor growth,[1]; systemic administration,did not yield inhibition of tumor growth; also recorded: had no effect on tumor growth
AV-IO/HSA: Avastin covalently bound via NHS-PEG-MA to IO/HSA nanoparticles,calculated bound avastin concentration,[2],0.10 mg/1 mg of the nanoparticles
